{"source": "patent US8389020B1", "about": "“Immediate action and long-lasting formulation to control moss and liverwort” (Tara Innovations LLC, priority 2011, dated 2013)", "tested_on": "moss", "experiment": "Experiment 1: ferrous sulfate/lime mixtures applied to 6″×6″ moss areas in triplicate", "format": "in vivo", "conditions": "in mixture with lime", "procedure": "In order to establish the effective concentration of ferrous sulfate in the formulation, mixtures of ferrous sulfate and lime with a ferrous sulfate concentration between 0 to 60% (w/w) were prepared (Table I) and applied to 6″×6″ area in triplicate. Water was sprayed over the area. The day time high temperature was 40° F. during the experiment and the night temperature decreased to 28° F. In one day, area with 30% or more ferrous sulfate concentration treatment turned black burning all the moss (Table II). The areas with 10% and 20% […] treatment were black in a week. There was no effect of 100% lime on the moss. Thus, a minimum concentration of 10% is suitable for the satisfactory results within a week. When % ferrous sulfate was more than 30%, the moss turned black in one day.", "data": [{"smiles": "O.O.O.O.O.O.O.O=S(=O)([O-])[O-].[Fe+2]", "note": "[ferrous sulfate, Ferrous sulfate septahydrate (FeSO4.7H2O)]", "values": [{"measurement": "Minimum ferrous sulfate concentration suitable for satisfactory results within a week", "result": 10, "unit": "%"}]}]}
